{"source": "patent US12642809B2", "about": "“Fucosylation and immune modulation in cancer” (H. LEE MOFFITT CANCER CENTER AND RESEARCH INSTITUTE, INC., priority 2019, dated 2026)", "key": {"melanoma tumors": {"tested_on": "melanoma tumors", "conditions": "cited from earlier work"}, "SM1 melanoma tumors": {"tested_on": "SM1 melanoma tumors", "experiment": "SM1 melanoma tumors in C57BL/6 mice fed control or L-fucose water", "type": "in vivo, mouse", "method": "Tumors of SW1 or SMI melanoma cells from C3H/HeJ or C57BL/6 mice, respectively) were digested using 1× tumor digest buffer (0.5 mg/ml. Collagenase I, 0.5 mg/ml. Collagenase IV, 0.25 mg/ml. Hyalyronidase V. 0.1 mg/ml. DNAse I in HBSS (Millipore Sigma (St. Louis, MO)). Tumors were homogenized using the Miltenyi MACs dissociator. Red blood cells were lysed using ACK lysis buffer (Life Technologies, (Grand Island, NY)). Tumor homogenate cells were counted using a standard hemocytometer. (7) Flow Cytometry (a) TIL Profiling:\n(§1) Single-cell suspensions from tumor and spleen tissue were stained with Live/Dead Zombie NIR (Biolegend, (San Diego, CA)) at 1:1,000 in PBS for 20 min. Cell suspensions were spun down and stained with the following antibodies: APC anti-mouse CD3 (0.5 μg/mL, BD Biosciences (San Jose, CA)), Pacific Blue anti-mouse CD4 ([…], BD Biosciences (San Jose, CA)), BV785 anti-mouse CD8 (0.5 μg/mL, BD Biosciences (San Jose, CA)), PerCP anti-mouse CD25 ([…], BD Biosciences (San Jose, CA)), FITC anti-mouse F4/80 (0.5 μg/mL, BD Biosciences (San Jose, CA)), PeCy7 anti-mouse CD11c (0.5 μg/mL, BD Biosciences (San Jose, CA)), PE anti-mouse NK1.1 (0.5 μg/mL, BD Biosciences (San Jose, CA)), PE anti-mouse DX5 (0.5 μg/mL, BD Biosciences (San Jose, CA)), PerCP-Cy5.5 anti-mouse CD11b (0.5 μg/mL, BD Biosciences (San Jose, CA)). After staining, the cells were washed and fixed (2% formaldehyde), followed by another wash and flow cytometric analysis. The compensation controls were prepared using 0.5 μg/ml. of each antibody with beads UltraComp eBeads™, (ThermoFisher Scientific (Waltham, MA)). All samples were subject to flow cytometric analysis using a LSR Flow Cytometer (BD Biosciences (San Jose, CA)). Flow cytometric data was further analyzed using FlowJo™ analysis software (BD Biosciences (San Jose, CA)). TIL profiles were determined as a measure of TIL subpopulations per gram of tumor tissues or % of total splenocytes.\nFFPE mouse tumor sections were immunostained with FITC-conjugated AAL lectin (0.4 μg/mL, Vector Laboratories (Burlingame, CA)), rabbit anti-Mart-1 (0.2 μg/mL, Millipore Sigma (St. Louis, MO), and rabbit anti-S100 (0.2 μg/mL, Agilent Technologies (Santa Clara, CA)), followed by AlexaFluor 594 donkey anti-rabbit secondary antibody (0.05 μg/mL, ThermoFisher Scientific (Waltham, MA)). The slides were mounted with VECTASHIELD®+DAPI (Vector Laboratories (Burlingame, CA)). Microscopy images were acquired using a Keyence BZ-X710 microscope (Osaka, Japan), and images were measured for AAL-positive signal within MARTI-/S 100-positive regions (designated as melanoma regions of interest) using FIJI software (NIH). Statistical analysis was performed using GraphPad Prism™ (San Diego, CA).\nFour-to-six-week-old female C3HeN and male C57BL6 mice were purchased from Charles Rivers Laboratories for the indicated experiments. Four-to-six-week-old male NSG mice from the Lau laboratory breeding colony were used for the indicated experiments. Mice were housed in the Comparative Medicine Facility at H. Lee Moffitt Cancer Center and Research Institute. Mouse tumor volumes were measured using length, width and depth divided by 2. Generally, 10 mice were assigned to each indicated treatment cohort, and 1×10^6 melanoma cells were subcutaneously injected into the right rear flanks of the recipient mice. At each experimental endpoint, mice were humanely euthanized using CO2 inhalation in accordance to the American Veterinary Medical Association guidelines. […] All experiments were approved by the Institutional Animal Care and Use Committee (IACUC) in accordance with the National Research Council guidelines.\nSW1 or SMI mouse melanoma cells were injected into syngeneic C3H/HeN (or NSG) female or C57BI/6 male mice, respectively. […]"}, "SW1 tumors": {"tested_on": "SW1 tumors", "experiment": "CD4+/CD8+ T cell immunodepletion, SW1 model", "type": "in vivo, mouse", "method": "as §1\nThree days prior to tumor engraftment, PBS (control) or ˜300 μg α-CD4 (20 mg/kg, for immunodepletion, GK1.5, Bioxcell (West Lebanon, NH)) or α-CD8 (20 mg/kg, for immunodepletion, 2.43, Bioxcell (West Lebanon, NH)) was administered by intraperitoneal injection into the indicated cohorts of mice. Injections of immunodepletion antibody or PBS were continued every 3-4 days until endpoint. Syngeneic recipient C3H/HeN female or C57BL/6 male mice were injected with SW1 or SMI cells, respectively. After approximately 7 days, when the tumors reached ˜150 mm^3, the mice were either supplemented with or without 100 mM L-fucose (Biosynth (Oak Terrace, IL)) via drinking water, which was provided ad libitum. When the tumors reached ˜2 cm^3, the animals were sacrificed, and the tumors were either processed for flow cytometric profiling or for histological analysis as indicated."}, "[1]": {"tested_on": "cell surface fucosylation", "experiment": "Flow cytometry of cell surface fucosylation (AAL lectin) in melanoma cells", "type": "cell-based, human", "conditions": "250 μM, 72 h, panel of melanoma cell lines", "method": "Indicated cells were treated for 72 h with DMSO, 250 μM fucosyltransferase inhibitor (FUTi) (Millipore Sigma (St. Louis, MO)), or 250 μM of L-fucose (Biosynth (Oak Terrace, IL)). After 72 h, cells were stained with 0.1 μM PKH26 (Millipore Sigma (St. Louis, MO)) prior to fixation in 4% formaldehyde solution. The cells were stained with anti-HLA-DRB1 (rabbit anti-human HLA-DRB1 (0.2 μg/mL, ab92371, Abcam (Cambridge, UK)) and fluorescein AAL (0.2 μg/ml. Vector Labs (Burlingame, CA)), or anti-human or anti-mouse PD-L1 (Novus Biologicals (Centennial, CO) or Biolegend (San Diego, CA), respectively) overnight. The following day the cells were washed 3 times prior to adding AlexaFluor 594 donkey anti-rabbit (0.8 μg/mL, ThermoFisher Scientific (Waltham, MA)). Cells were washed 3 times and then subject to flow cytometric analyses using a FACSCalibur™ (BD Biosciences (San Jose, CA)). Samples were analyzed using FlowJo™ analysis software (BD Biosciences (San Jose, CA)). Median values of DRB1 and AAL were normalized to PKH26 values and statistical analysis was performed using GraphPad Prism™."}, "[2]": {"conditions": "100 mM L-fucose in drinking water"}}}
{"molecule": "C[C@H](O)[C@@H](O)[C@@H](O)[C@H](O)C=O", "note": "[L-fucose]", "values": [{"measurement": "tumor suppression", "setting": "melanoma tumors; 100 mM fucose dietary supplementation", "value": "increased tumor suppression"}, {"measurement": "block/reduction of tumor growth (and metastasis)", "setting": "melanoma tumors; dietary L-fucose supplementation", "value": "> 50", "unit": "%"}, {"measurement": "NK cells and CD4+ T cells in tumor samples", "setting": "melanoma tumors; fucose supplemented mice", "value": "elevated"}, {"measurement": "decreased tumor volume", "setting": "SM1 melanoma tumors; [2]", "value": "~60", "unit": "%"}, {"measurement": "increase in tumor fucosylation", "setting": "SM1 melanoma tumors; [2]", "value": "~4", "unit": "fold"}, {"measurement": "absolute counts of each TIL subpopulation", "setting": "SM1 melanoma tumors; flow cytometry", "value": "significantly increased"}, {"measurement": "increase in CD3+ T cell subpopulation", "setting": "SM1 melanoma tumors; flow cytometry", "value": "~15", "unit": "fold"}, {"measurement": "increase in CD4+ and CD8+ T cells", "setting": "SM1 melanoma tumors; flow cytometry", "value": "10-100 fold"}, {"measurement": "increase in total TILs", "setting": "SM1 melanoma tumors; flow cytometry", "value": "~10", "unit": "fold"}, {"measurement": "splenic lymphocyte profiles", "setting": "SM1 melanoma tumors; flow cytometry", "value": "did not significantly alter"}, {"measurement": "L-fuc-induced tumor suppression and increase in total TILs", "setting": "SW1 tumors; CD4+ T cell-depleted mice", "value": "abrogated tumor suppression"}, {"measurement": "increases in intratumoral NK, DC and CD8+ T cells", "setting": "SW1 tumors; CD4+ T cell-depleted mice", "value": "completely blunted"}, {"measurement": "L-fuc-induced tumor suppression and increase in total TILs", "setting": "SW1 tumors; CD4+ T cell-depleted mice, listed as L-fuc", "value": "completely abrogated"}, {"measurement": "reduced tumor growth", "setting": "SW1 tumors; CD8+ T cell-depleted mice", "value": "~50", "unit": "%"}, {"measurement": "reduced tumor growth", "setting": "SW1 tumors; control (PBS-injected) mice", "value": "~60", "unit": "%"}, {"measurement": "increase in intratumoral CD8+ T cells", "setting": "SW1 tumors; control mice", "value": "~10", "unit": "fold"}, {"measurement": "increase in intratumoral DC", "setting": "SW1 tumors; control mice", "value": "~10", "unit": "fold"}, {"measurement": "increase in intratumoral NK cells", "setting": "SW1 tumors; control mice", "value": "~3", "unit": "fold"}, {"measurement": "cell surface fucosylation relative to DMSO", "setting": "[1]", "value": "increased"}]}
